The values that follow come from article PMC3038857, “Using Nuclear Receptor Activity to Stratify Hepatocarcinogens” (PLoS ONE, 2011).

One series concerns Mouse Liver. Conditions: mouse chronic study, liver, preneoplastic lesion; coded 6 / Inf / 0, code not explained here; ref ToxRefDB; cited from earlier work.
Series [1] addresses T1, PPARD (peroxisome proliferator-activated receptor delta) (Homo sapiens, UniProt Q03181).
T1 construct: expressed in transfected cells; host or cells: HepG2
T1 sequence (Q03181 1-441): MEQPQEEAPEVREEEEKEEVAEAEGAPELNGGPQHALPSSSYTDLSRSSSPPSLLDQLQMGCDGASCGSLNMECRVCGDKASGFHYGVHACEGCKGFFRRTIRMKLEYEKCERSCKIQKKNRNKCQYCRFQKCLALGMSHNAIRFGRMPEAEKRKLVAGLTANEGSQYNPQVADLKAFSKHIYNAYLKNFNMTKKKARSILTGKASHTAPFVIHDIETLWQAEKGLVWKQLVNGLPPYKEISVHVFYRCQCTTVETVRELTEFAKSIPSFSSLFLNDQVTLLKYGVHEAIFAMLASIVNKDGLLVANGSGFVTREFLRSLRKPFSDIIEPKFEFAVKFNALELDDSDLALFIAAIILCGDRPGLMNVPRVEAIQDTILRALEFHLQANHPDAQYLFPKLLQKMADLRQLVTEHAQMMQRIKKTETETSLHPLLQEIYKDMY
Briefly: ATG_PPARd_TRANS: Factorial reporter gene assay (HepG2). The conditions noted are these: scale not given, looks like -log10 of molar active concentration, 0 = no activity. On the set-up: scale not given here. Format: cell-based. The method, then:
(§1) A multiple reporter transcription unit (MRTU) library consisting of 48 transcription factor binding sites was transfected into the HepG2 human liver hepatoma cell line. In addition to the cis-acting reporter genes (CIS), a modification of the approach was used to generate a trans-system (TRANS) with a mammalian one-hybrid assay consisting of an additional 25 MRTU library reporting the activity of nuclear receptor super-family members. […] These assays were performed by Attagene Inc. (Morrisville NC) under contract to EPA.
(§2) In addition to the cis-acting reporter genes (CIS), a modification of the approach was used to generate a trans-system (TRANS) with a mammalian one-hybrid assay consisting of an additional 25 MRTU library reporting the activity of nuclear receptor super-family members. […] Chemicals were then tested in the CIS and TRANS assays at seven concentrations starting at the MTC and followed by three-fold serial dilutions. These assays were performed by Attagene Inc. (Morrisville NC) under contract to EPA. Detailed description of the methods, data and analysis methods for this dataset will be presented in a separate publication.
On the technique in general: A reporter such as luciferase makes a cellular process visible.

In series [2] the target is T2, CAR (NR1I3) (Homo sapiens, UniProt Q14994).
T2 sequence (Q14994 1-352): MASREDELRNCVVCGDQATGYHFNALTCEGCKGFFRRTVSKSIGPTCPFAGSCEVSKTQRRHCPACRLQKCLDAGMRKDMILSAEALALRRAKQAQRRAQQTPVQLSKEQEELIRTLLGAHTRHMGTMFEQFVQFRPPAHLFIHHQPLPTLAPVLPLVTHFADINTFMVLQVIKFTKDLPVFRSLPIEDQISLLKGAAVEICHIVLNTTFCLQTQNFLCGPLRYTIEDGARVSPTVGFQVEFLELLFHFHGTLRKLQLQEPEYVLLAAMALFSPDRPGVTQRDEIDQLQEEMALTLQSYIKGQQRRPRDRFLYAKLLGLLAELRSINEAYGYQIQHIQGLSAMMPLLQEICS
Briefly: NVS_NR_hCAR: Human CAR CITCO (cell-free HTS). Format: binding. The conditions noted are these: scale not given, looks like -log10 of molar active concentration, 0 = no activity. The text has this:
(§3) These are a collection of biochemical assays measuring binding constants and enzyme inhibition values. Chemicals were initially screened at a single concentration in duplicate wells at a concentration of 10 [drawing 63] M for cytochrome P-450 assays and 25 [drawing 64] M for all others. […] These assays were run by Caliper Life Sciences (Hanover, MD) under contract to EPA. Short assay descriptions are available at: http://www.caliperls.com/products/contract-research/in-vitro/.
(§4) Cell-free HTS Assays: A collection of biochemical assays measuring binding constants and enzyme inhibition values. […] These assays were run by Caliper Life Sciences (Hanover, MD) under contract to EPA. Short assay descriptions are available at http://www.caliperls.com/products/contract-research/in-vitro/. Values for all endpoints were imported into GeneData Screener (Basel, Switzerland) and normalised to solvent controls from the same plate as the tested compounds and expressed as percent of neutral control. Concentration-response curves were fit in GeneData Screener (Basel, Switzerland) Condeseo module using the Hill equation and AC50 values were determined. […] Detailed description of the methods, data and analysis methods for this dataset are described in a separate publication.

Series [3] concerns the target T3, AHR (aryl hydrocarbon receptor) (Homo sapiens, UniProt P35869).
T3 construct: endogenous in cells; host or cells: HepG2
T3 sequence (P35869 11-848): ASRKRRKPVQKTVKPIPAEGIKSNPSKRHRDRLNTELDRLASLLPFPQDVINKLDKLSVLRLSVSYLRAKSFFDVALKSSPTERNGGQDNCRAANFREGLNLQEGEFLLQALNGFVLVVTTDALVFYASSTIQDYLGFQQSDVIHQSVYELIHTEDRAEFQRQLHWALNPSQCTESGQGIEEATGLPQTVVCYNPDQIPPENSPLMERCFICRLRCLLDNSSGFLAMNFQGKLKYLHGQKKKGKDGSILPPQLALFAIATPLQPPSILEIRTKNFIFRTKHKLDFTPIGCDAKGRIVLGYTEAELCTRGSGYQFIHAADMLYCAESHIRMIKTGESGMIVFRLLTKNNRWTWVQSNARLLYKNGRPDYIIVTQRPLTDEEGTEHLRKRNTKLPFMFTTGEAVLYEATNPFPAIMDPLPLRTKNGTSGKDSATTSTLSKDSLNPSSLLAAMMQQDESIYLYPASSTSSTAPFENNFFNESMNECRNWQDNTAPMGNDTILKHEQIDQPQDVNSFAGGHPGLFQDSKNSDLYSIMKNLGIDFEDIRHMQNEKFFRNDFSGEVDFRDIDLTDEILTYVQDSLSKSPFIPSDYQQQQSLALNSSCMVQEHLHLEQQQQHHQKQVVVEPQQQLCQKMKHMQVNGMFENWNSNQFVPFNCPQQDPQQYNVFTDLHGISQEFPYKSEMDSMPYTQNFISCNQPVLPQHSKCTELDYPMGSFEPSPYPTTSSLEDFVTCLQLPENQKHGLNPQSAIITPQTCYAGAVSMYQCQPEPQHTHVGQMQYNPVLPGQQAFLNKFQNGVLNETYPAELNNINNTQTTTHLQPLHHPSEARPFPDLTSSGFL
The series can be described thus: ATG_Ahr_CIS: Factorial reporter gene assay (multiplexed transcription reporter, HepG2). The class given is cell-based. On the set-up: scale not given here. Conditions: HepG2; scale not given, looks like -log10 of molar active concentration; 0 = no activity. An outline of the steps: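 Seven concentrations per chemical, three-fold dilutions down from the MTC, were tested in HepG2 hepatoma cells. Those cells carried a multiple reporter transcription unit library, read either as cis transcription-factor-site reporters or as a trans mammalian one-hybrid panel for nuclear receptors.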

The target in series [4] is T2, CAR (NR1I3). The series can be described thus: NVS_NR_hCAR_Agonist: Human CAR CITCO Agonist (cell-free HTS). The class given is biochemical. The conditions noted are these: scale not given, looks like -log10 of molar active concentration, 0 = no activity.
From the text: as §3, §4

For series [5], the target named is T2, CAR (NR1I3). Briefly: ATG_CAR_TRANS: Factorial reporter gene assay (HepG2). On the set-up: endogenous in cells; host or cells: HepG2. Format: cell-based. The conditions noted are these: HepG2; scale not given, looks like -log10 of molar active concentration; 0 = no activity. The method, then: as §1, §2

Consider `Cc1c(COC(=O)C2C(/C=C(\Cl)C(F)(F)F)C2(C)C)cccc1-c1ccccc1` (centres unmarked) [r39], for which the CHR_Mouse_Liver_2_PreneoplasticLesion with Mouse Liver is listed as 6. This compound also had an ATG_PPARd_TRANS in series [1] of 0. In addition, at CAR (NR1I3) [2], the NVS_NR_hCAR is 0. Besides, the ATG_Ahr_CIS in series [3] was 0. In addition, the NVS_NR_hCAR_Agonist at CAR (NR1I3) [4] is 0. For the same compound, the ATG_CAR_TRANS on CAR (NR1I3) [5] is 0.
For the compound `N#Cc1cc(Br)c(O)c(Br)c1` [r44], in the series on Mouse Liver, the CHR_Mouse_Liver_2_PreneoplasticLesion is recorded as 6. In addition, the ATG_PPARd_TRANS in series [1] was 0. Further, the NVS_NR_hCAR at CAR (NR1I3) [2] worked out at 0. The ATG_Ahr_CIS in series [3] is given as 4.319. In addition, the NVS_NR_hCAR_Agonist at CAR (NR1I3) [4] stood at 0. This compound also had an ATG_CAR_TRANS at CAR (NR1I3) [5] of 0.
As for `CC(C)N1C(=O)N(c2ccccc2)CS/C1=N\C(C)(C)C` [r45], the CHR_Mouse_Liver_2_PreneoplasticLesion in the series on Mouse Liver was 6. The compound further had an ATG_PPARd_TRANS in series [1] of 0. Besides, on CAR (NR1I3) [2], the NVS_NR_hCAR is on record as 0. In series [3], the ATG_Ahr_CIS is given as 0. The compound also yielded an NVS_NR_hCAR_Agonist on CAR (NR1I3) [4] of 0. At CAR (NR1I3) [5], this compound displayed an ATG_CAR_TRANS of 0.
Regarding `C=CCOC(=O)C(C)(C)OC(=O)c1cc(-n2c(=O)cc(C(F)(F)F)n(C)c2=O)ccc1Cl` [r47], the CHR_Mouse_Liver_2_PreneoplasticLesion in the series with Mouse Liver is listed as 6. The compound further gave an ATG_PPARd_TRANS in series [1] of 0. Moreover, the NVS_NR_hCAR at CAR (NR1I3) [2] was 0. In series [3], this compound displayed an ATG_Ahr_CIS of 0. For the same compound, the NVS_NR_hCAR_Agonist at CAR (NR1I3) [4] amounted to 0. For the same compound, at CAR (NR1I3) [5], the ATG_CAR_TRANS was 0.
As to `CNC(=O)Oc1cccc2ccccc12` [r52], the CHR_Mouse_Liver_2_PreneoplasticLesion in the series on Mouse Liver is given as 6. This compound returned an ATG_PPARd_TRANS in series [1] of 0. This compound also gave an NVS_NR_hCAR at CAR (NR1I3) [2] of 0. This compound returned an ATG_Ahr_CIS in series [3] of 4.456. The NVS_NR_hCAR_Agonist at CAR (NR1I3) [4] was found to be 0. Besides, the ATG_CAR_TRANS on CAR (NR1I3) [5] worked out at 0.
`N#Cc1c(Cl)c(Cl)c(Cl)c(C#N)c1Cl` [r58] displayed an ATG_PPARd_TRANS in series [1] of 0. The compound also had an NVS_NR_hCAR at CAR (NR1I3) [2] of 0. Also, the ATG_Ahr_CIS in series [3] stood at 0. For the same compound, the NVS_NR_hCAR_Agonist at CAR (NR1I3) [4] was determined as 0. Besides, the ATG_CAR_TRANS on CAR (NR1I3) [5] amounted to 0.
`Cc1ccccc1CO[C@@H]1C[C@@]2(C(C)C)CC[C@]1(C)O2` [r64]: the CHR_Mouse_Liver_2_PreneoplasticLesion in the series on Mouse Liver is given as 6. Also, the ATG_PPARd_TRANS in series [1] is listed as 0. Besides, the NVS_NR_hCAR on CAR (NR1I3) [2] worked out at 0. The ATG_Ahr_CIS in series [3] came to 0. The same compound registered an NVS_NR_hCAR_Agonist at CAR (NR1I3) [4] of 0. The compound further came in with an ATG_CAR_TRANS on CAR (NR1I3) [5] of 0.
